Measured values as given in patent US6914045B2, “Glycopeptide antibiotics” (Wyeth Holdings Corporation, priority 2001, dated 2005).
In brackets after ≈: the same amount, converted by molar mass.

How the values were obtained:
Test in all cases: in vitro antibacterial evaluation, MIC by broth dilution
Assay type in all cases: cell-based
Escherichia coli = system: Escherichia coli
In short: (§1)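 MIC, the lowest antibiotic concentration preventing growth, was read across 64-0.06 μg/mL with 5×10^5 CFU/mL inoculum. Method followed NCCLS M7-A2 broth dilution using Mueller-Hinton II; Gram-positive strains covered recent methicillin-, penicillin- and/or vancomycin-resistant clinical isolates.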

Staphylococcus sp. = settings: broth dilution, 18 hours at 35° C.; for MIC Staphylococcus aureus (GC 1131): strain GC 1131
In short: as §1

Streptococcus sp. = settings: broth dilution, 18 hours at 35° C.; for MIC Streptococcus pneumoniae (ATCC 6301): strain ATCC 6301; for MIC Streptococcus pneumoniae (GC 1894): strain GC 1894; for MIC Streptococcus pyogenes (GC 4563): strain GC 4563; for MIC Streptococcus agalactiae (GC 4564): strain GC 4564; for MIC Streptococcus pneumoniae (GC 4565): strain GC 4565
In short: as §1

Enterococcus sp. = settings: broth dilution, 18 hours at 35° C.; for MIC Enterococcus faecalis (ATCC 29212): strain ATCC 29212; for MIC Enterococcus faecalis (GC 2242): strain GC 2242; for MIC Enterococcus faecium (GC 2243): strain GC 2243; for MIC Enterococcus faecalis (GC 2691): strain GC 2691; for MIC Enterococcus faecalis (GC 3059): strain GC 3059; for MIC Enterococcus faecalis (GC 4552): strain GC 4552; for MIC Enterococcus faecalis (GC 4553): strain GC 4553; for MIC Enterococcus faecalis (GC 4554): strain GC 4554; for MIC Enterococcus faecium (GC 4556): strain GC 4556; for MIC Enterococcus faecium (GC 4557): strain GC 4557; for MIC Enterococcus avium (GC 4558): strain GC 4558; for MIC Enterococcus faecalis (GC 6189): strain GC 6189
In short: as §1

CC(C)=CCOc1cccc(C2OCC3OC(OC4C(CO)OC(Oc5ccc(CC6NC(=O)C(C(C)c7ccccc7)NC(=O)CNC(=O)C(CO)NC(=O)C(C(O)C7CNC(=N)N7C7OC(CO)C(O)C(O)C7O)NC(=O)C(C(O)C7CNC(=N)N7)NC6=O)cc5)C(O)C4O)C(O)C(O)C3O2)c1 (stereo not drawn) [Example 165]
MIC Escherichia coli (ATCC 25922) (Escherichia coli; strain ATCC 25922, 18 hours at 35° C.): >64 µg/mL | MIC Escherichia coli (GC 4559) (Escherichia coli; strain GC 4559, 18 hours at 35° C.): >64 µg/mL | MIC Escherichia coli (GC 4560) (Escherichia coli; strain GC 4560, 18 hours at 35° C.): 16 µg/mL (≈ 10.9 µM) | MIC Staphylococcus aureus (GC 1131) (Staphylococcus sp.; inoculum 5×10^5 CFU/mL): 16 µg/mL (≈ 10.9 µM) | MIC Staphylococcus aureus (ATCC 29213) (Staphylococcus sp.; strain ATCC 29213): 16 µg/mL (≈ 10.9 µM) | MIC Staphylococcus aureus (GC 1131) (Staphylococcus sp.): 16 µg/mL (≈ 10.9 µM) | MIC Staphylococcus aureus (GC 3051) (Staphylococcus sp.; strain GC 3051): 32 µg/mL (≈ 21.8 µM) | MIC Staphylococcus aureus (GC 3053) (Staphylococcus sp.; strain GC 3053): 16 µg/mL (≈ 10.9 µM) | MIC Staphylococcus aureus (GC 4541) (Staphylococcus sp.; strain GC 4541): 16 µg/mL (≈ 10.9 µM) | MIC Staphylococcus aureus (GC 4542) (Staphylococcus sp.; strain GC 4542): 16 µg/mL (≈ 10.9 µM) | MIC Staphylococcus aureus-SMITH (GC 4543) (Staphylococcus sp.; strain GC 4543): 16 µg/mL (≈ 10.9 µM) | MIC Staphylococcus aureus (GC 4544) (Staphylococcus sp.; strain GC 4544): 16 µg/mL (≈ 10.9 µM) | MIC Staphylococcus aureus (GC 4545) (Staphylococcus sp.; strain GC 4545): 16 µg/mL (≈ 10.9 µM) | MIC Staphylococcus haemolyticus (GC 4546) (Staphylococcus sp.; strain GC 4546): 16 µg/mL (≈ 10.9 µM) | MIC Coagulase Negative Staphylococcus (GC 4547) (Staphylococcus sp.; strain GC 4547): 16 µg/mL (≈ 10.9 µM) | MIC Coagulase Negative Staphylococcus (GC 4548) (Staphylococcus sp.; strain GC 4548): 8 µg/mL (≈ 5.45 µM) | MIC Coagulase Negative Staphylococcus (GC 4549) (Staphylococcus sp.; strain GC 4549): 8 µg/mL (≈ 5.45 µM) | MIC Coagulase Negative Staphylococcus (GC 4551) (Staphylococcus sp.; strain GC 4551): 16 µg/mL (≈ 10.9 µM) | MIC Coagulase Negative Staphylococcus (GC 6257) (Staphylococcus sp.; strain GC 6257): 8 µg/mL (≈ 5.45 µM) | MIC Staphylococcus aureus-SMITH (GC 4543) (Staphylococcus sp.; strain SMITH GC 4543): 16 µg/mL (≈ 10.9 µM) | MIC Streptococcus pneumoniae (ATCC 6301) (Streptococcus sp.; inoculum 5×10^5 CFU/mL): 0.12 µg/mL (≈ 0.0818 µM) | MIC Streptococcus pneumoniae (GC 1894) (Streptococcus sp.; inoculum 5×10^5 CFU/mL): <0.06 µg/mL | MIC Streptococcus pyogenes (GC 4563) (Streptococcus sp.; inoculum 5×10^5 CFU/mL): 0.12 µg/mL (≈ 0.0818 µM) | MIC Streptococcus agalactiae (GC 4564) (Streptococcus sp.; inoculum 5×10^5 CFU/mL): 1 µg/mL (≈ 0.681 µM) | MIC Streptococcus pneumoniae (GC 4565) (Streptococcus sp.; inoculum 5×10^5 CFU/mL): 0.12 µg/mL (≈ 0.0818 µM) | MIC Streptococcus pneumoniae (ATCC 6301) (Streptococcus sp.): 0.12 µg/mL (≈ 0.0818 µM) | MIC Streptococcus pneumoniae (GC 1894) (Streptococcus sp.): <0.06 µg/mL | MIC Streptococcus pyogenes (GC 4563) (Streptococcus sp.): 0.12 µg/mL (≈ 0.0818 µM) | MIC Streptococcus agalactiae (GC 4564) (Streptococcus sp.): 1 µg/mL (≈ 0.681 µM) | MIC Streptococcus pneumoniae (GC 4565) (Streptococcus sp.): 0.12 µg/mL (≈ 0.0818 µM) | MIC Enterococcus faecalis (ATCC 29212) (Enterococcus sp.; inoculum 5×10^5 CFU/mL): 16 µg/mL (≈ 10.9 µM) | MIC Enterococcus faecalis (GC 2242) (Enterococcus sp.; inoculum 5×10^5 CFU/mL): 16 µg/mL (≈ 10.9 µM) | MIC Enterococcus faecium (GC 2243) (Enterococcus sp.; inoculum 5×10^5 CFU/mL): 16 µg/mL (≈ 10.9 µM) | MIC Enterococcus faecalis (GC 2691) (Enterococcus sp.; inoculum 5×10^5 CFU/mL): 16 µg/mL (≈ 10.9 µM) | MIC Enterococcus faecalis (GC 3059) (Enterococcus sp.; inoculum 5×10^5 CFU/mL): 16 µg/mL (≈ 10.9 µM) | MIC Enterococcus faecalis (GC 4552) (Enterococcus sp.; inoculum 5×10^5 CFU/mL): 16 µg/mL (≈ 10.9 µM) | MIC Enterococcus faecalis (GC 4553) (Enterococcus sp.; inoculum 5×10^5 CFU/mL): 16 µg/mL (≈ 10.9 µM) | MIC Enterococcus faecalis (GC 4554) (Enterococcus sp.; inoculum 5×10^5 CFU/mL): 32 µg/mL (≈ 21.8 µM) | MIC Enterococcus faecium (GC 4556) (Enterococcus sp.; inoculum 5×10^5 CFU/mL): 16 µg/mL (≈ 10.9 µM) | MIC Enterococcus faecium (GC 4557) (Enterococcus sp.; inoculum 5×10^5 CFU/mL): 16 µg/mL (≈ 10.9 µM) | MIC Enterococcus avium (GC 4558) (Enterococcus sp.; inoculum 5×10^5 CFU/mL): 16 µg/mL (≈ 10.9 µM) | MIC Enterococcus faecalis (GC 6189) (Enterococcus sp.; inoculum 5×10^5 CFU/mL): 16 µg/mL (≈ 10.9 µM) | MIC Enterococcus faecalis (ATCC 29212) (Enterococcus sp.): 16 µg/mL (≈ 10.9 µM) | MIC Enterococcus faecalis (GC 2242) (Enterococcus sp.): 16 µg/mL (≈ 10.9 µM) | MIC Enterococcus faecium (GC 2243) (Enterococcus sp.): 16 µg/mL (≈ 10.9 µM) | MIC Enterococcus faecalis (GC 2691) (Enterococcus sp.): 16 µg/mL (≈ 10.9 µM) | MIC Enterococcus faecalis (GC 3059) (Enterococcus sp.): 16 µg/mL (≈ 10.9 µM) | MIC Enterococcus faecalis (GC 4552) (Enterococcus sp.): 16 µg/mL (≈ 10.9 µM) | MIC Enterococcus faecalis (GC 4553) (Enterococcus sp.): 16 µg/mL (≈ 10.9 µM) | MIC Enterococcus faecalis (GC 4554) (Enterococcus sp.): 32 µg/mL (≈ 21.8 µM) | MIC Enterococcus faecium (GC 4556) (Enterococcus sp.): 16 µg/mL (≈ 10.9 µM) | MIC Enterococcus faecium (GC 4557) (Enterococcus sp.): 16 µg/mL (≈ 10.9 µM) | MIC Enterococcus avium (GC 4558) (Enterococcus sp.): 16 µg/mL (≈ 10.9 µM) | MIC Enterococcus faecalis (GC 6189) (Enterococcus sp.): 16 µg/mL (≈ 10.9 µM)
